Data as given in the supplement of paper PMC4862054.

Legend:
Conditions in all cases: 72 h
MFM-223 = tested on: MFM-223
How it was run: (§1)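 In this assay, breast cancer cell lines spent 72 h with compound at 5 concentrations in 10-fold steps over a compound-specific 10,000-fold range. The first readout was cell death by CellTox Green fluorescence, and the second was viability by CellTiter-Glo luminescence, each normalised per plate to 0.1 % DMSO and a positive kill control. EC50 came from the dose-response curves, censored at the top concentration.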

CAL-148 [1] = tested on: CAL-148
Description: (§2)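 Drug sensitivity and resistance testing (DSRT) of breast cancer cell lines in 384-well plates, 5 concentrations in 10-fold dilutions over a compound-specific 10,000-fold range. After 72 h, cytotoxicity was read by CellTox Green fluorescence and viability by CellTiter-Glo luminescence (multiplexed), normalised to DMSO and benzethonium chloride controls. EC50 is the inflection point of the fitted dose-response curve (bottom asymptote free, so it can be relative for partial curves) and is censored at the highest tested concentration. Rows with DSS 0 (no meaningful response) were excluded.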

SK-BR-3 [2] = tested on: SK-BR-3
How it was run: as §1

MDA-MB-453 = tested on: MDA-MB-453
How it was run: as §1

HCC1599 [3] = tested on: HCC1599
How it was run: as §1

CAL-85-1 [4] = tested on: CAL-85-1
How it was run: as §1

Hs578T [5] = tested on: Hs578T
How it was run: as §1

MDA-MB-468 [6] = tested on: MDA-MB-468
Description: as §2

BT-549 [7] = tested on: BT-549
Description: as §2

MDA-MB-436 [8] = tested on: MDA-MB-436
Description: as §2

CAL-51 [9] = tested on: CAL-51
Description: as §2

BT-474 = tested on: BT-474
How it was run: as §1

HDQ-P1 = tested on: HDQ-P1
How it was run: as §1

MDA-MB-468 [10] = tested on: MDA-MB-468; remark: listed apart in the source
How it was run: as §1

CAL-120 [11] = tested on: CAL-120
How it was run: as §1

BT-549 [12] = tested on: BT-549; remark: listed apart in the source
How it was run: as §1

MDA-MB-436 [13] = tested on: MDA-MB-436; remark: listed apart in the source
How it was run: as §1

CAL-51 [14] = tested on: CAL-51; remark: listed apart in the source
How it was run: as §1

DU-4475 = tested on: DU-4475
How it was run: as §1

CAL-148 [15] = tested on: CAL-148; remark: listed apart in the source
How it was run: as §1

HCC1937 [16] = tested on: HCC1937
How it was run: as §1

HCC1143 [17] = tested on: HCC1143
How it was run: as §1

MCF-10A [18] = tested on: MCF-10A
Description: as §2

MDA-MB-231 [19] = tested on: MDA-MB-231
Description: as §2

Hs578T [20] = tested on: Hs578T; remark: listed apart in the source
Description: as §2

CAL-148 [21] = tested on: CAL-148; remark: listed apart in the source
How it was run: (§3)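 Viability of breast cancer cell lines was measured with CellTiter-Blue after 72 h of incubation on compound-loaded 384-well plates. Cells were seeded in 20 µl onto compound dissolved in 5 µl medium, and 2.5 µl reagent was added for 2 h at 37 °C before reading at 560/590 nm. EC50 was fitted from percent-inhibition dose-response data censored at the highest concentration, normalised per plate to vehicle and a positive kill control, with zero drug sensitivity score rows dropped.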

SK-BR-3 [22] = tested on: SK-BR-3; remark: listed apart in the source
How it was run: as §3

HCC1599 [23] = tested on: HCC1599; remark: listed apart in the source
How it was run: as §3

MCF-10A [24] = tested on: MCF-10A; remark: listed apart in the source
How it was run: as §1

MDA-MB-231 [25] = tested on: MDA-MB-231; remark: listed apart in the source
How it was run: as §1

HCC1937 [26] = tested on: HCC1937; remark: listed apart in the source
Description: as §2

CAL-85-1 [27] = tested on: CAL-85-1; remark: listed apart in the source
How it was run: as §3

CAL-120 [28] = tested on: CAL-120; remark: listed apart in the source
How it was run: as §3

HCC1143 [29] = tested on: HCC1143; remark: listed apart in the source
How it was run: as §3

HCC1937 [30] = tested on: HCC1937; remark: listed apart in the source
How it was run: as §3

SMILES	EC50, CellTiter-Glo (SK-BR-3 [2])	EC50, CellTiter-Glo (MDA-MB-453)	EC50, CellTiter-Glo (HCC1599 [3])	EC50, CellTiter-Glo (BT-474)	EC50, CellTiter-Glo (MDA-MB-436 [13])	EC50, CellTiter-Glo (HCC1937 [16])	EC50, CellTiter-Blue viability (SK-BR-3 [22])	EC50, CellTiter-Glo (MDA-MB-231 [25])	EC50, CellTiter-Glo (MFM-223)	EC50, CellTiter-Glo (CAL-85-1 [4])	EC50, CellTiter-Glo (Hs578T [5])	EC50, CellTox Green (MDA-MB-468 [6])	EC50, CellTiter-Glo (CAL-120 [11])	EC50, CellTiter-Glo (CAL-148 [15])	EC50, CellTox Green (Hs578T [20])	also measured
COc1cc2c(Oc3ccc4[nH]c(C)cc4c3F)ncnc2cc1OCCCN1CCCC1 [Cediranib]									338 nM							
CC1=C(/C=C/C(C)=C/C=C/C(C)=C/C(=O)O)C(C)(C)CCC1 [Tretinoin]	2210 nM	3230 nM	5530 nM				731 nM	2600 nM			6610 nM			354 nM	130 nM	EC50, CellTox Green (MCF-10A [18]): 676 nM; EC50, CellTox Green (MDA-MB-231 [19]): 3200 nM; EC50, CellTiter-Blue viability (CAL-148 [21]): 43.5 nM; EC50, CellTiter-Blue viability (HCC1599 [23]): 133 nM; EC50, CellTiter-Glo (MCF-10A [24]): 1990 nM
O=C(/C=C/c1cccnc1)NCCCCC1CCN(C(=O)c2ccccc2)CC1 [Daporinad]		2.71 nM	4.15 nM	40.8 nM	67.4 nM	6.97 nM		29.6 nM	2.11 nM	7.79 nM	4.27 nM	596 nM	9.73 nM	81 nM		EC50, CellTox Green (HCC1937 [26]): 24.1 nM; EC50, CellTiter-Glo (MCF-10A [24]): 7.85 nM; EC50, CellTiter-Glo (HDQ-P1): 16.3 nM; EC50, CellTiter-Glo (MDA-MB-468 [10]): 3.53 nM; EC50, CellTiter-Glo (DU-4475): 6.78 nM; EC50, CellTiter-Glo (HCC1143 [17]): 8.05 nM
N#Cc1ccc(C(c2ccc(C#N)cc2)n2cncn2)cc1 [Letrozole]															> 10000 nM	EC50, CellTiter-Blue viability (HCC1599 [23]): 311 nM; EC50, CellTiter-Blue viability (HCC1937 [30]): > 10000 nM

More lines, main results first:

EC50, CellTiter-Glo (SK-BR-3 [2])	EC50, CellTiter-Glo (MDA-MB-453)	EC50, CellTiter-Glo (HCC1599 [3])	EC50, CellTiter-Glo (BT-474)	EC50, CellTiter-Glo (MDA-MB-436 [13])	EC50, CellTiter-Glo (HCC1937 [16])	EC50, CellTiter-Blue viability (SK-BR-3 [22])	EC50, CellTiter-Glo (MDA-MB-231 [25])	SMILES	EC50, CellTiter-Glo (MFM-223)	EC50, CellTiter-Glo (CAL-85-1 [4])	EC50, CellTiter-Glo (Hs578T [5])	EC50, CellTox Green (MDA-MB-468 [6])	EC50, CellTiter-Glo (CAL-120 [11])	EC50, CellTiter-Glo (CAL-148 [15])	EC50, CellTox Green (Hs578T [20])	also measured
918 nM	219 nM	691 nM						Cc1cnc(NC(=O)Nc2cc(Br)c(C)cc2OC[C@@H]2CNCCO2)cn1 [Rabusertib]		> 1000 nM	354 nM					EC50, CellTox Green (CAL-148 [1]): > 1000 nM
3820 nM		3060 nM	2340 nM	27.6 nM	5960 nM			CC[C@H](C)C(=O)O[C@H]1C[C@H](O)C=C2C=C[C@H](C)[C@H](CC[C@@H](O)C[C@@H](O)CC(=O)O)[C@H]21 [Pravastatin]	> 10000 nM	8620 nM		5470 nM	2310 nM	6540 nM		EC50, CellTox Green (BT-549 [7]): > 10000 nM; EC50, CellTox Green (MDA-MB-436 [8]): 15.7 nM; EC50, CellTox Green (CAL-51 [9]): 3380 nM; EC50, CellTiter-Glo (HDQ-P1): 4740 nM; EC50, CellTiter-Glo (MDA-MB-468 [10]): 5910 nM; EC50, CellTiter-Glo (BT-549 [12]): 2640 nM; EC50, CellTiter-Glo (CAL-51 [14]): 78 nM; EC50, CellTiter-Glo (DU-4475): 6590 nM; EC50, CellTiter-Glo (HCC1143 [17]): 2450 nM
23.1 nM			408 nM	30.3 nM	64.1 nM	116 nM	652 nM	Nc1nc2[nH]cc(CCc3ccc(C(=O)N[C@@H](CCC(=O)O)C(=O)O)cc3)c2c(=O)[nH]1 [Pemetrexed]		41.1 nM	47.4 nM	8620 nM			9350 nM	EC50, CellTox Green (MDA-MB-231 [19]): 2830 nM; EC50, CellTiter-Blue viability (CAL-85-1 [27]): 878 nM; EC50, CellTiter-Blue viability (CAL-120 [28]): > 10000 nM; EC50, CellTiter-Blue viability (HCC1143 [29]): > 10000 nM; EC50, CellTiter-Glo (CAL-51 [14]): 2.23 nM
				7390 nM		2120 nM		Nc1nc(F)nc2c1ncn2[C@@H]1O[C@H](CO)[C@@H](O)[C@@H]1O [Fludarabine]					> 10000 nM			EC50, CellTiter-Blue viability (HCC1937 [30]): 1320 nM; EC50, CellTiter-Glo (BT-549 [12]): 5920 nM
